# Data reported in patent US8097654B2, “Radiolabeled 3-[3-(benzoyl-amido)benzyloxy]aspartic acid derivative and method of producing the same” (Suntory Holdings Limited, priority 2004, dated 2012).
# Key:
# EAAT4 = target: T1, EAAT4 (Homo sapiens, UniProt P48664); assay: Saturation binding / Scatchard analysis, EAAT4 expressed on COS-1 cells; details: COS-1 cell membrane preparation
# T1 construct: expressed in transfected cells; host or cells: COS-1 cells (membrane preparation)
# T1 sequence (P48664 1-564): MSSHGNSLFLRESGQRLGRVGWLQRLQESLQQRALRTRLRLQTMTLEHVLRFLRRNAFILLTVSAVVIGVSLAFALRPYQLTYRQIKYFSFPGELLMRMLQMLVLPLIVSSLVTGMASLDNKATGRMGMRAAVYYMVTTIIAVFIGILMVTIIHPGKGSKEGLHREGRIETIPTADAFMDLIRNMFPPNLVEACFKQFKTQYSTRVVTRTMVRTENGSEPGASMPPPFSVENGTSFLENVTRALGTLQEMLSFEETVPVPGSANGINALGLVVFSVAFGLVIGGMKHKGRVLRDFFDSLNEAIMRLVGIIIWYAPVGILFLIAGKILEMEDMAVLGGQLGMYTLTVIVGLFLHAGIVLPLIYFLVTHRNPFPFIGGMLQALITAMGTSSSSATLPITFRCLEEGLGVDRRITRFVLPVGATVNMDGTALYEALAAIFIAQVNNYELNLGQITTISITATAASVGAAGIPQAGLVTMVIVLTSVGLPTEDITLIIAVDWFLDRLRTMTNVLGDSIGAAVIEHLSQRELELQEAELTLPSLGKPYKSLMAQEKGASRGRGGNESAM
# Protocol: (§1) About 20 ml of a medium contained in a T-flask (150 cm^2) was inoculated with COS-1 cells expressing EAAT which were then incubated therein until they reached confluence. After aspiration of the medium, the cells were washed with about 10 ml of phosphate buffered saline (PBS). After adding 4 ml of 0.25% trypsin/1 mM EDTA and allowing to stand for 5 minutes, 6 ml of the medium was added and the cells were collected into a 50 ml tube. Then they were centrifuged at 1200 rpm for 2 minutes and the supernatant was aspirated. The residue was thoroughly homogenized in a binding buffer (50 mM Tris-HCl (pH 7.4), 120 mM NaCl, 5 mM KCl, 2.5 mM CaCl2, 1 mM MgCl2) with the use of a Polytron homogenizer on ice. The homogenate was centrifuged at 30,000×g at 4° C. for 20 minutes. […]
# (§2) Then the reaction was ceased by filtering the mixture through a GF/C filter (Whatman) having been soaked in a 0.1% poly-L-lysine hydrobromide solution for an hour followed by washing with 20 mM Tris buffer. After drying the filter, a solid scintillator MeltiLex A (PerkinElmer) was melted-on and the radioactivity was measured with a β-counter. The radioactivity of the sample free from TFB-TBOA was referred to as the total binding amount, while the radioactivity of the sample containing TFB-TBOA was referred to as the nonspecific binding amount. Then the difference was calculated as the specific binding amount.
# EAAT5 = target: T2, EAAT5 (Homo sapiens, UniProt O00341); assay: Saturation binding / Scatchard analysis, EAAT5 expressed on COS-1 cells; details: COS-1 cell membrane preparation
# T2 construct: expressed in transfected cells; host or cells: COS-1 cells (membrane preparation)
# Protocol: as §1, §2
# EAAT2 [1] = target: T3, EAAT2 (Homo sapiens, UniProt P43004); assay: Saturation binding / Scatchard analysis, EAAT2 expressed on COS-1 cells; parameters: expressed in transfected cells; host or cells: COS-1 cells (membrane preparation); details: COS-1 cell membrane preparation
# Protocol: as §1, §2
# human EAAT3 = target: T4, human EAAT3 (Homo sapiens, UniProt P43005); assay: Inhibition of [14C]-glutamic acid uptake by EAAT3 expressed in MDCK or COS-1 cells; format: cell-based; details: 1 μM L-[14C]-glutamic acid, 12 minutes
# T4 construct: expressed in transfected cells
# T4 sequence (P43005 1-524): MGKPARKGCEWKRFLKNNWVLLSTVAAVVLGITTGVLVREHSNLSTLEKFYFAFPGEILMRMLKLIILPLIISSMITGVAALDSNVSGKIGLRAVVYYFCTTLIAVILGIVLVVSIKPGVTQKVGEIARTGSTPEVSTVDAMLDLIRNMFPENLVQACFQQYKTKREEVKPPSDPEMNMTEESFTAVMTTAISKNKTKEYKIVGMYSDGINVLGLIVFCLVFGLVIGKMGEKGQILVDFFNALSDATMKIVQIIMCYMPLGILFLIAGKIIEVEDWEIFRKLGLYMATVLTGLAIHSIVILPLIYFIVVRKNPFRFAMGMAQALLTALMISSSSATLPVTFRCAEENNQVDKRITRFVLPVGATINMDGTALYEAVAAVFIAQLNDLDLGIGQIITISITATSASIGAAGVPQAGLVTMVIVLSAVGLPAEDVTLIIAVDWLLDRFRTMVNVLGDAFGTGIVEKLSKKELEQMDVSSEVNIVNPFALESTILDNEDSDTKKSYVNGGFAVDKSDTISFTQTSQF
# Protocol: (§3) In accordance with a known method (Shimamoto, K. et al., Mol. Pharmacol. 53, 195-201, 1998; Bioorg. Med. Chem. Lett. 10, 2407-2410, 2000), the inhibitory activity was assayed as the ability to inhibit the uptake of [^14C]-glutamic acid by human EAAT2 and EAAT3 stably expressed in MDCK (Madin-Darby canine kidney) cells or transiently expressed in COS-1 cells. The glutamate uptake activity was assayed by incubating a mixture of 1 μM of L-[^14C]-glutamic acid with a sample compound at a predetermined concentration for 12 minutes, lysing the cells and then measuring the radioactivity incorporated into the cells with a liquid scintillator. The amount of uptake was expressed in percentage by referring the amount of uptake in the absence of a test compound (i.e., the buffer alone) as 100% and referring the amount of uptake in a sodium-free solution as 0%.
# EAAT2 [2] = target: T3, EAAT2; assay: Inhibition of [14C]-glutamic acid uptake by EAAT2 expressed in MDCK or COS-1 cells; format: cell-based; parameters: expressed in transfected cells; details: 1 μM L-[14C]-glutamic acid, 12 minutes
# Protocol: as §3
# T3 sequence (P43004 whole entry): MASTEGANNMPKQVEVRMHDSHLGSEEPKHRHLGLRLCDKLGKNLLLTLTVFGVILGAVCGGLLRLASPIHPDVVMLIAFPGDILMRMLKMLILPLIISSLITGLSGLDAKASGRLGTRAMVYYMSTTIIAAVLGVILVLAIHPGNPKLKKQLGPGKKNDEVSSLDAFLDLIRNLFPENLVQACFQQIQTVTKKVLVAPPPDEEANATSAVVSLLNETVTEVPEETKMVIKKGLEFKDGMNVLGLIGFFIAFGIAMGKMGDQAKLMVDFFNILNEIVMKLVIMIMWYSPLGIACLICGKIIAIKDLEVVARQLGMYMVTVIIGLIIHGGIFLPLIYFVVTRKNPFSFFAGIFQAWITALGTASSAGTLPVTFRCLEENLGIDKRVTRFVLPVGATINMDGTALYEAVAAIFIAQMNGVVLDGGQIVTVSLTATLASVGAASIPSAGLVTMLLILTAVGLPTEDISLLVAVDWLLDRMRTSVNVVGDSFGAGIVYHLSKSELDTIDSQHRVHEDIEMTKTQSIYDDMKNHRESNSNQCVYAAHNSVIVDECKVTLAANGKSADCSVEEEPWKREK
# T2 sequence (O00341 whole entry, species assumed): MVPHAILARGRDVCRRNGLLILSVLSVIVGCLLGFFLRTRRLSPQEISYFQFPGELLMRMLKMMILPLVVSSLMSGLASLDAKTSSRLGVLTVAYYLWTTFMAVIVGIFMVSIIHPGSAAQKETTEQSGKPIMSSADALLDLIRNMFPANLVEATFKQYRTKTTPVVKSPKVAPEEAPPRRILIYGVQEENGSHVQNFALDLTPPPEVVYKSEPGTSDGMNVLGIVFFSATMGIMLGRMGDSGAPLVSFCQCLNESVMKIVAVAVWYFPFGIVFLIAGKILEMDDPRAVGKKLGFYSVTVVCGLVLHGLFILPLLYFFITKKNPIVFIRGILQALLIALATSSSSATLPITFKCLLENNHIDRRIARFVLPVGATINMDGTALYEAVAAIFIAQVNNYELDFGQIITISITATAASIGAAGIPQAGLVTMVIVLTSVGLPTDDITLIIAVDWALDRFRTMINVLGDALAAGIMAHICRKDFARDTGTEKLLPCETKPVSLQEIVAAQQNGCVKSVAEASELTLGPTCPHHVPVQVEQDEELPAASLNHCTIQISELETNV
Structure (SMILES),Kd (EAAT4),Kd (EAAT5),Kd (EAAT2 [1]),IC50 (human EAAT3),IC50 (EAAT2 [2])
[3H]CC([3H])c1ccc(C(=O)Nc2cccc(CO[C@H](C(=O)O)[C@H](N)C(=O)O)c2)cc1 (stereo partly shown) [(^3H)Et-BzA-TBOA],13 nM,30 nM,26 nM,,
"NC(C(=O)O)C(OCc1ccccc1)C(=O)O [L-TBOA, threo-β-benzyloxyaspartic acid, reference compound]",,,,1300 ± 120 nM,1300 ± 120 nM
"N[C@H](C(=O)O)[C@H](OCc1cccc(NC(=O)c2ccc(C(F)(F)F)cc2)c1)C(=O)O [TFB-TBOA, reference compound]",,,,28 ± 1.8 nM,1.9 ± 0.1 nM
